Data as given in PMC8878317, “Chemogenomics identifies acetyl-coenzyme A synthetase as a target for malaria treatment and prevention” (Cell Chemical Biology, 2022).
Where two headings read alike, the source gives them in different places.

Experiments:
PfAcAS T648M = target: T1, PfAcAS T648M (Plasmodium falciparum, UniProt C6KTB4, T648M); experiment: EnzChek assay, recombinant PfAcAS T648M; type: biochemical, P. falciparum
T1 sequence (C6KTB4 1-997 T648M): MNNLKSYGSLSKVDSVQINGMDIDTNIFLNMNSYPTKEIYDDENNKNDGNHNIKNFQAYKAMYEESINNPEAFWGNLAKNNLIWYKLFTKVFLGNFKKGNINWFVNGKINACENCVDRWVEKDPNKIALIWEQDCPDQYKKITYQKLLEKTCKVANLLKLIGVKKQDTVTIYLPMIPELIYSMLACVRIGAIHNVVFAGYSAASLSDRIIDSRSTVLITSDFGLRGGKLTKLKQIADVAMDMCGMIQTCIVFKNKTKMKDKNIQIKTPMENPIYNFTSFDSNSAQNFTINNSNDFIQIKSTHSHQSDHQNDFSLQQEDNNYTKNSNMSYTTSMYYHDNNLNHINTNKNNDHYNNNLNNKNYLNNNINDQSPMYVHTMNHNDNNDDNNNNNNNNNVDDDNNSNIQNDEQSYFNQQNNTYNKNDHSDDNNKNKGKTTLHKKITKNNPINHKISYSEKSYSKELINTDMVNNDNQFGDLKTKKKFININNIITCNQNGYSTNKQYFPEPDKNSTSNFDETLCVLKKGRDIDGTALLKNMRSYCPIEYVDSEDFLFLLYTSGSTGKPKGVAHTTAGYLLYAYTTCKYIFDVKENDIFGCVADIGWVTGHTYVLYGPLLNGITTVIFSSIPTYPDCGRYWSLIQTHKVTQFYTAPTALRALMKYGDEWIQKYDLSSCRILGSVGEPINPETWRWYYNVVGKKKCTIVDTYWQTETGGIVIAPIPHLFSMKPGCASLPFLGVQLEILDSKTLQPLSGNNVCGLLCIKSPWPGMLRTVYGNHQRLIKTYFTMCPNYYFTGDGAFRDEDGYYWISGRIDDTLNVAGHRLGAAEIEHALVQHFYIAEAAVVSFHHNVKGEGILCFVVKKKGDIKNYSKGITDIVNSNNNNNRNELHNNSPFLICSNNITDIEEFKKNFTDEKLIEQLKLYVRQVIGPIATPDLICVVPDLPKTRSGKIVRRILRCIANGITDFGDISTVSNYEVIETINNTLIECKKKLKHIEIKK
Protocol: (§1) Steady-state kinetic measurements were conducted at room temperature using a PheraStar plate reader (BMG). The first step of the reaction of PfAcAS, which produces inorganic pyrophosphate (PPi) that is converted to two molecules of inorganic phosphate using a pyrophosphatase enzyme, was continuously monitored using the EnzChek Phosphate Assay Kit, which gives an absorbance readout at 360 nm (Figure 4A) ([Webb, 1992]). […] By adding CoA, the reaction rapidly proceeds to the second step resulting in further release of pyrophosphate, making the EnzChek assay a suitable option to continuously monitor the activity of PfAcAS. Typical kinetic assays were carried out in clear, flat-bottom, polystyrene, 384-well plates (Greiner) in an 80 μL reaction volume containing 100 mM HEPES (pH7.4), 100 mM NaCl, 250 mM KCl, 50 mM MgCl2, 1 mM DTT, 0.004% Tween 20, 0.5 U/mL pyrophosphatase, 0.1 mM MESG, 0.5 U/mL PNP, 2 mM ATP, 2 mM acetate, 0.5 mM CoA and 5 nM recombinant PfAcAS WT or 10 nM recombinant PfAcAS A597V or T648M. Assays were performed by adding 40 μL of a 2-times concentrated substrate mixture including MESG to all wells, and the reactions started by adding 40 μL of a 2-times concentrated reaction mixture containing all other components. The reactions were carried out for 2 to 4 hr with absorbance readings at 360 nm every two to four minutes. Reaction rates were extracted from the linear phase of activity, usually using 10 to 20 points between times of 30 and 100 min of the reactions. Using a phosphate standard curve obtained under the same buffer conditions used for the PfAcAS reactions (Figure S5A), the rates were then converted to velocity per second, conversion of one nanomolar of phosphate, per nanomolar of enzyme, per second. The substrates Km values were determined by varying the concentration of one of the substrates at saturating concentration of the other two substrates. Steady-state data were fitted using the nonlinear, least-squares, curve-fitting programs of Sigma-Plot for Windows, version 14.0. Individual saturation curves were fit to Equation 1(Equation 1) v=VS/K+S where V is the maximal velocity, S is the substrate concentration and K is the Michaelis constant for the substrate (Km). Individual saturation curves displaying substrate inhibition were fit to Equation 2(Equation 2) v=VS/K+S×(1+S/Ks) where Ks is the substrate inhibition constant.
(§2) To determine the steady-state inhibition parameters and patterns associated with both inhibitors, PfAcAS activity was studied in the presence of variable concentrations of one substrate, ATP, acetate or CoA, fixed saturating concentration of the other two substrates (acetate and CoA, ATP and CoA, or ATP and acetate) and several fixed concentrations of inhibitor. Assay ready plates containing different concentrations of inhibitor were prepared using an Echo 550 acoustic dispenser (Labcyte Inc.). The assays were carried out as described in the previous section. […] For better comparison between both inhibitors and proteins, the ymin was fixed to zero and the ymax to 100. Inhibition data showing linear, competitive patterns in double-reciprocal plots were fit to Equation 4(Equation 4) v=VS/K(1+I/Ki)+S where Ki is the dissociation constant for the enzyme-inhibitor complex. Inhibition data showing linear, mixed inhibition patterns in double-reciprocal plots were fit to Equation 5(Equation 5) v=VS/K(1+I/Kis)+S(1+I/Kii) where Kis is the dissociation constant for the free enzyme-inhibitor complex and Kii is the dissociation constant for the enzyme-substrate-inhibitor complex. Inhibition data showing linear, uncompetitive patterns in double-reciprocal plots were fit to Equation 6(Equation 6) v=VS/K+S(1+I/Ki)

[1] = test system: histone acetylation in P. falciparum Dd2 parent; experiment: Histone acetylation Western blot, Dd2 parent; type: cell-based; conditions: trophozoites, 3 h exposure
Protocol: Synchronous trophozoite-stage (24-32hr post-invasion) cultures at 3–5% parasitemia and 2% hematocrit in complete medium were exposed to test compounds for 3 hr at 37°C. […] DMSO was tested at 0.1% as the vehicle-only control. Following drug exposure, parasites were isolated via saponin lysis ice-cold 0.1% saponin in phosphate-buffered saline (PBS). Isolated parasites were washed 3x in ice-cold PBS containing protease inhibitor cocktail (cOmplete mini, Roche) and lysed in 1x Laemmli Sample Buffer (Biorad) with 5% beta-mercaptoethanol (Sigma-Aldrich). Samples were heated at 99°C for 10 min before centrifugation. Equal quantities of solute were separated on Protean TGX Precast Gels (4–20% gradient) in Tris-SDS-glycine buffer, transferred to nitrocellulose membrane by iblot (Invitrogen), and blocked for 1h in tris-buffered saline (TBS) with 5% skim milk powder. Blocked membranes were probed with antibodies recognising tetra-acetylated H4 (H4ac4, Sigma-Aldrich 06–866), H4K8ac (CST #2594), H3K9ac (CST #9649) or H3 (CST #4499), at 1:1000 dilution, and PfBiP ([Shonhai et al., 2007]) (at 1:5000 dilution) in 3% milk powder TBS with 0.1% Tween 20 at 4°C overnight and with 800CW goat α-rabbit IgG (Licor) at 1:10,000 dilution. Membranes were visualised using a Licor Odyssey CLX imaging system and quantified using ImageJ.

PfAcAS WT = PfAcAS WT (Plasmodium falciparum, UniProt C6KTB4); experiment: PfAcAS mode of inhibition studies (EnzChek); type: biochemical, P. falciparum; set-up: key to MoI (mode of inhibition), Kis/Kii,acetate / MoI (mode of inhibition), Ki,ATP / MoI (mode of inhibition), Kis,acetate / MoI (mode of inhibition), Ki,CoA: UC = uncompetitive; MI = mixed inhibition; C = competitive
Protocol: as §1, §2

[2] = test system: liver-stage P. berghei parasites (Pbluc); experiment: Liver-stage P. berghei assay (Pbluc); type: cell-based; conditions: Plasmodium berghei
[3] = test system: P. falciparum NF54-PfACS11-cKD; experiment: cKD compound susceptibility assay, PfACS11 cKD line; type: cell-based; conditions: 50 nM aTc vs no aTc
[4] = variable ATP, saturating acetate and CoA, linear uncompetitive, read-out: Ki versus ATP
[5] = variable CoA, saturating ATP and acetate, read-out: Ki versus CoA

SMILES | Hill, AcAS T648M (PfAcAS T648M) | IC50 (PfAcAS T648M) [nM] | histone acetylation in Dd2 parent [1] | MoI (mode of inhibition), Ki,ATP (PfAcAS WT; Table S6 (MMV019721 MoI)) | MoI (mode of inhibition), Ki,CoA (PfAcAS WT; Table S6 (MMV019721 MoI)) | MoI (mode of inhibition), Kis,acetate (PfAcAS WT; Table S6 (MMV019721 MoI)) | MoI (mode of inhibition), Kis/Kii,acetate (PfAcAS WT; Table S6, fourth column (head printed MMV019721 MoI)) | Ki (PfAcAS WT; [4]) [nM] | Ki (PfAcAS WT; [5]) [nM] | Ki (PfAcAS WT; variable acetate, saturating ATP and CoA, linear uncompetitive, read-out: Ki versus acetate) [nM] | EC50 [2] [nM] | effect of conditional knockdown of PfACS11 on parasite sensitivity [3] | Kii against acetate (PfAcAS WT; linear mixed inhibition, enzyme-substrate-inhibitor complex) [nM] | Ki (PfAcAS WT; linear mixed inhibition, free enzyme-inhibitor complex, read-out: Kis against acetate) [nM]
CCN(CC)S(=O)(=O)c1ccc(Cl)c(C(=O)Nc2ccc3nc(C)sc3c2)c1 [MMV019721] | 0.81 ± 0.12 | 18000 ± 3200 | dose-dependent reduction | UC | C | UC | MI | 200 ± 8 | 22 ± 1 | 150 ± 10 | 2100 | did not increase parasite sensitivity | – | –
O=C(NNC(=O)c1csnn1)c1ccc(Cl)cc1 [MMV084978] | – | > 100000 | – | – | – | – | – | 680 ± 26 | 690 ± 24 | – | 520 ± 210 | did not increase parasite sensitivity | 390 ± 110 | 30 ± 3
